Measured values published in patent publication US10428086B2, “Solvated crystal form of rifaximin, production, compositions and uses thereof” (ALFASIGMA S.p.A., priority 2014, dated 2019).

Columns and labels:
[1] = Determination of intrinsic dissolution (European Pharmacopeia Ed. 7.0, 2.9.3); format: physicochemical; conditions: for Intrinsic dissolution: powder of Example 5, Eur. Pharm. 7.0, 2.9.3
Description: The determination of the intrinsic dissolution of the powder, which was obtained according to what is described in Example 5, was carried out according to European Pharmacopeia Ed. 7.0, 2010, 2.9.3, page 256, (the disclosure of which is incorporated herein by reference in its entirety), comparing the new crystal of rifaximin τ and amorphous rifaximin and rifaximin polymorph β.

[2] = per oral route; cited from earlier work
[3] = Dissolution rate at neutral pH (phosphate buffer pH 6.8); format: physicochemical; conditions: for Concentration: 500 mg in 750 ml phosphate buffer pH 6.8, 30°C, 250 rpm
Description: An amount of 500 mg of rifaximin τ, 500 mg of rifaximin polymorph α, and 500 mg of amorphous rifaximin were suspended, respectively, in 750 ml of phosphate buffer at pH 6.8 at a temperature of 30±0.5° C. The solutions were stirred for 120 minutes at a stirring rate of 250 rpm. Samples with equal volume were taken at fixed time intervals, filtered and analyzed by spectrophotometer at a wavelength of 430 nm. The rifaximin concentration in the samples was calculated compared to a solution having a known concentration.

[4] = Stability in different humidity environments (XRPD); format: physicochemical; conditions: for Stability of crystal form (XRPD pattern after exposure): 10 days; for Stability on exposure to humidity: humidity levels about 10% to about 90%, about 1 hour to about 10 days
Text: a) The rifaximin τ obtained according to Example 1 was exposed at room temperature to a humidity level of 11%, obtained by means of a saturated solution of LiCl, for a period of time of 10 days.
b) Another crystal of rifaximin τ was exposed to a humidity level of 84%, obtained with a supersaturated aqueous solution of KCl for 10 days.

[5] = PK / bioavailability study on dogs; format: in vivo, Beagle male dogs; conditions: single oral capsule 100 mg/kg, plasma; for tmax: median values
Description: A bioavailability study of rifaximin τ in comparison with rifaximin amorphous and rifaximin polymorph alpha has been carried out on 4 Beagle male dogs, by feeding them a dose of 100 mg/kg of one of the polymorphs or amorphous form. Each animal received a single oral capsule of rifaximin τ, amorphous rifaximin, and rifaximin α with a washout period of seven days between the administration of each form to the same animal. Doses were administered with a […] gelatine capsule followed by 10 ml of drinking water.
Blood was taken at 6 time points up to 24 hours post dose and it was collected into tubes containing lithium heparin anticoagulant.
The plasma has been assayed for rifaximin on the validated LC-MS/MS (Liquid Chromatography-Mass Spectrometry/Mass Spectrometry) method and the maximum plasma concentration observed (Cmax), the time to reach the (Cmax), (tmax), and the area under the concentration-time curve (AUC) have been calculated.

Compound	Intrinsic dissolution [1] [mg/min/cm^2]	Concentration ([3]; 5 min) [ng/mL]	Concentration ([3]; 15 min) [ng/mL]	Concentration ([3]; 30 min)	Concentration ([3]; 60 min) [ng/mL]	Concentration ([3]; 120 min) [ng/mL]	AUC 0-8h [5] [ng·h/mL]	AUC 0-tlast [5] [ng·h/mL]	Cmax [5] [ng/mL]	tmax [5] [h]	further results
CO[C@H]1/C=C/O[C@@]2(C)Oc3c(C)c(O)c4c(O)c(c5c(nc6cc(C)ccn65)c4c3C2=O)NC(=O)/C(C)=C\C=C\[C@H](C)[C@H](O)[C@@H](C)[C@@H](O)[C@@H](C)[C@H](OC(C)=O)[C@@H]1C [Rifaximin polymorph β, rifaximin]	0.016	–	–	–	–	–	–	–	–	–	–
CCOCCOCCO [DEGME, 2-(2-ethoxyethoxy)ethanol]	–	–	–	–	–	–	–	–	–	–	NOAEL (No Observed Adverse Effect Level) [2]: higher than 160 mg/kg of body mass
CO[C@H]1/C=C/O[C@@]2(C)Oc3c(C)c(O)c4c(O)c(c5c(nc6cc(C)ccn65)c4c3C2=O)NC(=O)/C(C)=C\C=C\[C@H](C)[C@H](O)[C@@H](C)[C@@H](O)[C@@H](C)[C@H](OC(C)=O)[C@@H]1C [Rifaximin τ, rifaximin]	–	21680	57680	higher than 90 μg/ml	43140	14930	–	–	–	–	Concentration relative to rifaximin polymorph α ([3]; aqueous solution): about 25 times; Concentration relative to amorphous rifaximin ([3]; pH 6.8, after about 30 minutes): about five times higher; Concentration relative to rifaximin polymorph α or β ([3]; pH 6.8, after about 30 minutes): about twenty times higher; Stability of crystal form (XRPD pattern after exposure) ([4]; humidity level 11% (saturated LiCl), room temperature): correspond to the X-ray diffraction pattern of FIG. 1; Stability of crystal form (XRPD pattern after exposure) ([4]; humidity level 84% (supersaturated KCl)): correspond to the X-ray diffraction pattern of FIG. 1; Stability on exposure to humidity [4]: does not alter its chemical structure; Stability on exposure to humidity ([4]; listed as rifaximin τ): does not transform its crystallographic parameters and X-ray diffractogram; AUC 0-8h ([5]; listed as rifaximin τ): 0 to 35 ng·h/mL; AUC 0-tlast ([5]; listed as rifaximin τ): 20 to 325 ng·h/mL; Cmax ([5]; listed as rifaximin τ): 0 to 35 ng/mL; AUC 0-8h ([5]; listed as τ): 19.93 ± 10.25 ng·h/mL; AUC 0-tlast ([5]; listed as τ): 150.54 ± 172.55 ng·h/mL; Cmax ([5]; listed as τ): 15.70 ± 18.63 ng/mL; tmax ([5]; listed as rifaximin τ): 3 to 7 h; tmax ([5]; listed as τ): 5 h
CO[C@H]1/C=C/O[C@@]2(C)Oc3c(C)c(O)c4c(O)c(c5c(nc6cc(C)ccn65)c4c3C2=O)NC(=O)/C(C)=C\C=C\[C@H](C)[C@H](O)[C@@H](C)[C@@H](O)[C@@H](C)[C@H](OC(C)=O)[C@@H]1C [Rifaximin α, rifaximin]	–	1050	3260	4230 ng/mL	4120	3890	7.20 ± 4.00	16.86 ± 13.99	2.84 ± 1.26	1	–
CO[C@H]1/C=C/O[C@@]2(C)Oc3c(C)c(O)c4c(O)c(c5c(nc6cc(C)ccn65)c4c3C2=O)NC(=O)/C(C)=C\C=C\[C@H](C)[C@H](O)[C@@H](C)[C@@H](O)[C@@H](C)[C@H](OC(C)=O)[C@@H]1C [Amorphous rifaximin, rifaximin]	0.131	14400	44000	28700 ng/mL	11000	9100	1318.02 ± 1975.04	2337.16 ± 3223.76	279.79 ± 378.41	3	Effect of added DEGME on measured dissolved rifaximin ([1]; addition of 0.1 ml and 1.25 ml DEGME to the solution contacting the tablet): does not change the measured value of the dissolved rifaximin
